Test results from patent US20230091047A1 (priority 2019, published 2023).

Experiments:
[1] = test system: HBV (HepG2.117 cell line, inducibly HBV producing); assay: Anti-HBV activity: intracellular HBV DNA by real-time PCR in HepG2.117 cells after 3 days of treatment; format: cell-based, hepatitis B virus; details: Hepatitis B virus, HepG2.117, 72 h, HepG2.117 cells, 3 days of treatment, intracellular HBV DNA by real-time PCR; mean value; read-out: EC50 (μM, mean value)
Procedure, shortened: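 Inducible HBV-producing HepG2.117 line (Tet-off); 3-day exposure to serially diluted compound after induction; real-time PCR of intracellular viral DNA.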

in vitro = format: cell-based; details: human, HepG2 or HepG2.117 cells, 3-days incubation (unmarked values), ATPlite; mean value
Procedure, shortened: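 Luminescent ATP quantitation served as the viability endpoint following a 3- or 4-day incubation with test compounds.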

| Structure (SMILES) | EC50 [1] [µM] | CC50 at 3 days (in vitro) [µM] |
| --- | --- | --- |
| COc1ccccc1-n1c(OC)nc2c(c1=O)CCN(C(=O)c1ccc(Cl)c(Cl)c1)C2 [Compound C54, 7-(3,4-dichlorobenzoyl)-2-methoxy-3-(2-methoxyphenyl)-5,6,7,8-tetrahydropyrido[3,4-d]pyrimidin-4(3H)-one] | 4.59 | 29.7 |
| COc1ccccc1-n1c(NC2CCc3ccccc32)nc2c(c1=O)CCN(C(=O)c1ccc(Cl)c(Cl)c1)C2 (stereo not drawn) [Compound C55, 7-(3,4-dichlorobenzoyl)-2-[(2,3-dihydro-1H-inden-1-yl)amino]-3-(2-methoxyphenyl)-5,6,7,8-tetrahydropyrido[3,4-d]pyrimidin-4(3H)-one] | 22.1 | 23.6 |
| COc1ccccc1-n1c(NC(C)c2ccncc2)nc2c(c1=O)CCN(C(=O)c1ccc(Cl)c(Cl)c1)C2 (stereo not drawn) [Compound C56, 7-(3,4-dichlorobenzoyl)-3-(2-methoxyphenyl)-2-{[1-(pyridin-4-yl)ethyl]amino}-5,6,7,8-tetrahydropyrido[3,4-d]pyrimidin-4(3H)-one] | 1.93 | > 50 |
| COc1ccccc1-n1c(N)nc2c(c1=O)CCN(C(=O)c1ccc(Cl)c(Cl)c1)C2 [Compound C57, 2-amino-7-(3,4-dichlorobenzoyl)-3-(2-methoxyphenyl)-5,6,7,8-tetrahydropyrido[3,4-d]pyrimidin-4(3H)-one] | 0.91 | > 50 |
| COc1ccc(CNc2nc3c(c(=O)n2C2COC2)CCN(C(=O)c2ccc(Cl)c(Cl)c2)C3)cc1 [Compound C58, 7-(3,4-dichlorobenzoyl)-2-{[(4-methoxyphenyl)methyl]amino}-3-(oxetan-3-yl)-5,6,7,8-tetrahydropyrido[3,4-d]pyrimidin-4(3H)-one] | 2.56 | 42.8 |
| COc1ccc(CNc2nc3c(c(=O)n2CC2CC2)CCN(C(=O)c2ccc(Cl)c(Cl)c2)C3)cc1 [Compound C59, 3-(cyclopropylmethyl)-7-(3,4-dichlorobenzoyl)-2-{[(4-methoxyphenyl)methyl]amino}-5,6,7,8-tetrahydropyrido[3,4-d]pyrimidin-4(3H)-one] | 2.53 | > 50 |
| COc1ccc(CNc2nc3c(c(=O)[nH]2)CCN(C(=O)c2ccc(Cl)c(C)c2)C3)cc1 [Compound C60, 7-(4-chloro-3-methylbenzoyl)-2-{[(4-methoxyphenyl)methyl]amino}-5,6,7,8-tetrahydropyrido[3,4-d]pyrimidin-4(3H)-one] | 3.25 | 23.8 |
| COc1ccc(CNc2nc3c(c(=O)[nH]2)CC(C)N(C(=O)c2ccc(Cl)c(Cl)c2)C3)cc1 (stereo not drawn) [Compound C63, 7-(3,4-dichlorobenzoyl)-2-{[(4-methoxyphenyl)methyl]amino}-6-methyl-5,6,7,8-tetrahydropyrido[3,4-d]pyrimidin-4(3H)-one] | 2.59 | 28.4 |
| COc1ccc(CNc2nc3c(c(=O)[nH]2)C[C@@H](C)N(C(=O)c2ccc(Cl)c(Cl)c2)C3)cc1 [Compound C63A, (6R)-7-(3,4-dichlorobenzoyl)-2-{[(4-methoxyphenyl)methyl]amino}-6-methyl-5,6,7,8-tetrahydropyrido[3,4-d]pyrimidin-4(3H)-one] | 3.58 | 30.4 |
| COc1ccc(CNc2nc3c(c(=O)[nH]2)C[C@H](C)N(C(=O)c2ccc(Cl)c(Cl)c2)C3)cc1 [Compound C63B, (6S)-7-(3,4-dichlorobenzoyl)-2-{[(4-methoxyphenyl)methyl]amino}-6-methyl-5,6,7,8-tetrahydropyrido[3,4-d]pyrimidin-4(3H)-one] | 1.63 | 35.3 |
| COc1ccc(CNc2nc3c(c(=O)n2C2CCCCC2)CCN(C(=O)c2ccc(Cl)c(Cl)c2)C3)cc1 [Compound C64, 3-cyclohexyl-7-(3,4-dichlorobenzoyl)-2-{[(4-methoxyphenyl)methyl]amino}-5,6,7,8-tetrahydropyrido[3,4-d]pyrimidin-4(3H)-one] | 8.91 | > 50 |
| COc1ccc(CNc2nc3c(c(=O)n2CC2CCOCC2)CCN(C(=O)c2ccc(Cl)c(Cl)c2)C3)cc1 [Compound C65, 7-(3,4-dichlorobenzoyl)-2-{[(4-methoxyphenyl)methyl]amino}-3-[(oxan-4-yl)methyl]-5,6,7,8-tetrahydropyrido[3,4-d]pyrimidin-4(3H)-one] | 2.72 | 37.8 |
| COc1ccc(CNc2nc3c(c(=O)n2C2CCN(S(C)(=O)=O)CC2)CCN(C(=O)c2ccc(Cl)c(Cl)c2)C3)cc1 [Compound C66, 7-(3,4-dichlorobenzoyl)-3-[1-(methanesulfonyl)piperidin-4-yl]-2-{[(4-methoxyphenyl)methyl]amino}-5,6,7,8-tetrahydropyrido[3,4-d]pyrimidin-4(3H)-one] | 0.77 | > 50 |
| COc1ccc(CNc2nc3c(c(=O)n2CC(C)C)CCN(C(=O)c2ccc(Cl)c(Cl)c2)C3)cc1 [Compound C67, 7-(3,4-dichlorobenzoyl)-2-{[(4-methoxyphenyl)methyl]amino}-3-(2-methylpropyl)-5,6,7,8-tetrahydropyrido[3,4-d]pyrimidin-4(3H)-one] | 9.51 | > 50 |
| COc1ccc(CNc2nc3c(c(=O)n2-c2cccnc2)CCN(C(=O)c2ccc(Cl)c(Cl)c2)C3)cc1 [Compound C68, 7-(3,4-dichlorobenzoyl)-2-{[(4-methoxyphenyl)methyl]amino}-3-(pyridin-3-yl)-5,6,7,8-tetrahydropyrido[3,4-d]pyrimidin-4(3H)-one] | 0.66 | 22.4 |
| COc1ccc(CNc2nc3c(c(=O)[nH]2)CCN(C(=O)c2ccc(Br)c(F)c2)C3)cc1 [Compound C69, 7-(4-bromo-3-fluorobenzoyl)-2-{[(4-methoxyphenyl)methyl]amino}-5,6,7,8-tetrahydropyrido[3,4-d]pyrimidin-4(3H)-one] | 10 | 21 |
| COc1ccc(CNc2nc3c(c(=O)n2C2CC2)CCN(C(=O)c2ccc(Cl)c(Cl)c2)C3)cc1 [Compound C70, 3-cyclopropyl-7-(3,4-dichlorobenzoyl)-2-{[(4-methoxyphenyl)methyl]amino}-5,6,7,8-tetrahydropyrido[3,4-d]pyrimidin-4(3H)-one] | 10.8 | 23.1 |
| CCCn1c(NCc2ccc(OC)cc2)nc2c(c1=O)CCN(C(=O)c1ccc(Cl)c(Cl)c1)C2 [Compound C71, 7-(3,4-dichlorobenzoyl)-2-{[(4-methoxyphenyl)methyl]amino}-3-propyl-5,6,7,8-tetrahydropyrido[3,4-d]pyrimidin-4(3H)-one] | 7.04 | > 50 |
| COc1ccc(CNc2nc3c(c(=O)n2C(C)C)CCN(C(=O)c2ccc(Cl)c(Cl)c2)C3)cc1 [Compound C72, 7-(3,4-dichlorobenzoyl)-2-{[(4-methoxyphenyl)methyl]amino}-3-(propan-2-yl)-5,6,7,8-tetrahydropyrido[3,4-d]pyrimidin-4(3H)-one] | 2.77 | 40 |
| COc1ccc(CNc2nc3c(c(=O)n2C2CCCC2)CCN(C(=O)c2ccc(Cl)c(Cl)c2)C3)cc1 [Compound C73, 3-cyclopentyl-7-(3,4-dichlorobenzoyl)-2-{[(4-methoxyphenyl)methyl]amino}-5,6,7,8-tetrahydropyrido[3,4-d]pyrimidin-4(3H)-one] | 9.37 | > 50 |
| CCOC(=O)c1cccc(-n2c(NCc3ccc(OC)cc3)nc3c(c2=O)CCN(C(=O)c2ccc(Cl)c(Cl)c2)C3)c1 [Compound C74, ethyl 3-[7-(3,4-dichlorobenzoyl)-2-{[(4-methoxyphenyl)methyl]amino}-4-oxo-5,6,7,8-tetrahydropyrido[3,4-d]pyrimidin-3(4H)-yl]benzoate] | 1.43 | > 50 |
| COc1ccc(CNc2nc3c(c(=O)n2-c2cccc(C(=O)O)c2)CCN(C(=O)c2ccc(Cl)c(Cl)c2)C3)cc1 [Compound C75, 3-[7-(3,4-dichlorobenzoyl)-2-{[(4-methoxyphenyl)methyl]amino}-4-oxo-5,6,7,8-tetrahydropyrido[3,4-d]pyrimidin-3(4H)-yl]benzoic acid] | > 50 | > 50 |
| COc1ccc(Cn2c(N)nc3c(c2=O)CCN(C(=O)c2ccc(Cl)c(Cl)c2)C3)cc1 [Compound C76, 2-amino-7-(3,4-dichlorobenzoyl)-3-[(4-methoxyphenyl)methyl]-5,6,7,8-tetrahydropyrido[3,4-d]pyrimidin-4(3H)-one] | 9.63 | 7.1 |
| COc1ccc(CNc2nc3c(c(=O)n2-c2ccc(F)c(C#N)c2)CCN(C(=O)c2ccc(Cl)c(Cl)c2)C3)cc1 [Compound C77, 5-[7-(3,4-dichlorobenzoyl)-2-{[(4-methoxyphenyl)methyl]amino}-4-oxo-5,6,7,8-tetrahydropyrido[3,4-d]pyrimidin-3(4H)-yl]-2-fluorobenzonitrile] | 1.58 | > 50 |
| COc1ccc(CNc2nc3c(c(=O)n2-c2ccccn2)CCN(C(=O)c2ccc(Cl)c(Cl)c2)C3)cc1 [Compound C78, 7-(3,4-dichlorobenzoyl)-2-{[(4-methoxyphenyl)methyl]amino}-3-(pyridin-2-yl)-5,6,7,8-tetrahydropyrido[3,4-d]pyrimidin-4(3H)-one] | 2.11 | 41.8 |
| COc1ccc(CNc2nc3c(c(=O)[nH]2)CCN(C(=O)c2cc4ccc(Cl)cc4[nH]2)C3)cc1 [Compound C79, 7-(6-chloro-1H-indole-2-carbonyl)-2-{[(4-methoxyphenyl)methyl]amino}-5,6,7,8-tetrahydropyrido[3,4-d]pyrimidin-4(3H)-one] | 2.32 | 37.5 |
| COc1ccc(CNc2nc3c(c(=O)[nH]2)CCN(C(=O)c2ccc(Br)c(Br)c2)C3)cc1 [Compound C80, 7-(3,4-dibromobenzoyl)-2-{[(4-methoxyphenyl)methyl]amino}-5,6,7,8-tetrahydropyrido[3,4-d]pyrimidin-4(3H)-one] | 2.02 | > 50 |
